pEC50: −log10 of the molar value.
Tests used:
[1] = system: influenza virus A/H1N1/pdm09; assay type: cell-based, influenza virus A/California/07/09/H1N1/pdm09
[2] = system: MDCK cells; conditions: dog

Compound: 18α-GL [Compound 15]
- pEC50 [1]: 4.82
- SI [1]: 3
- anti-viral activity (in words) [1]: week anti-viral activity
- more toxic to cells than natural glycoside 1 [2]: 7.7 times

Compound: CC1(C)[C@@H](O[C@H]2O[C@H](C(=O)O)[C@@H](O)[C@H](O)[C@H]2O[C@@H]2O[C@H](C(=O)O)[C@@H](O)[C@H](O)[C@H]2O)CC[C@]2(C)[C@H]3C(=O)C=C4[C@@H]5C[C@@](C)(C(=O)O)CC[C@]5(C)CC[C@@]4(C)[C@]3(C)CC[C@@H]12 [Compound 1, Glycyrrhizic acid]
- anti-viral activity (in words) [1]: did not show anti-viral activity
- CD50 [2]: 364.6 µM

Compound: COC(=O)[C@H](Cc1ccccc1)NC(=O)[C@H]1O[C@@H](O[C@H]2[C@H](O[C@H]3CC[C@]4(C)[C@H]5C(=O)C=C6[C@@H]7C[C@@](C)(C(=O)O)CC[C@]7(C)CC[C@@]6(C)[C@]5(C)CC[C@H]4C3(C)C)O[C@H](C(=O)N[C@@H](Cc3ccccc3)C(=O)OC)[C@@H](O)[C@@H]2O)[C@H](O)[C@@H](O)[C@@H]1O [Compound 5]
- more wide SI values than Rimantadine [1]: 12.2 times

Compound: COC(=O)C[C@H](NC(=O)[C@H]1O[C@@H](O[C@H]2[C@H](O[C@H]3CC[C@]4(C)[C@H]5C(=O)C=C6[C@@H]7C[C@@](C)(C(=O)O)CC[C@]7(C)CC[C@@]6(C)[C@]5(C)CC[C@H]4C3(C)C)O[C@H](C(=O)N[C@@H](CC(=O)OC)C(=O)OC)[C@@H](O)[C@@H]2O)[C@H](O)[C@@H](O)[C@@H]1O)C(=O)OC [Compound 9]
- anti-viral activity (in words) [1]: does not confer virus-inhibiting properties
- CD50 [2]: 37.3 µM

Compound: CC1(C)[C@@H](O[C@@H]2O[C@H](C(=O)N[C@@H](CSCc3ccccc3)C(=O)O)[C@@H](O)[C@H](O)[C@H]2O[C@@H]2O[C@H](C(=O)N[C@@H](CSCc3ccccc3)C(=O)O)[C@@H](O)[C@H](O)[C@H]2O)CC[C@]2(C)[C@H]3C(=O)C=C4[C@@H]5C[C@@](C)(C(=O)O)CC[C@]5(C)CC[C@@]4(C)[C@]3(C)CC[C@@H]12 [Compound 11]
- more wide SI values than Rimantadine [1]: 14.2 times

Compound: CC1(C)[C@@H](O[C@@H]2O[C@H](C(=O)N[C@@H](CCCCNC(=O)OCc3ccccc3)C(=O)O)[C@@H](O)[C@H](O)[C@H]2O[C@@H]2O[C@H](C(=O)N[C@@H](CCCCNC(=O)OCc3ccccc3)C(=O)O)[C@@H](O)[C@H](O)[C@H]2O)CC[C@]2(C)[C@H]3C(=O)C=C4[C@@H]5C[C@@](C)(C(=O)O)CC[C@]5(C)CC[C@@]4(C)[C@]3(C)CC[C@@H]12 [Compound 13]
- anti-viral activity (in words) [1]: slightly increased antiviral activity

Compound: COC(=O)C[C@H](NC(=O)[C@H]1O[C@@H](O[C@H]2[C@H](O[C@H]3CC[C@]4(C)[C@H]5C(=O)C=C6[C@H]7C[C@@](C)(C(=O)O)CC[C@]7(C)CC[C@@]6(C)[C@]5(C)CC[C@H]4C3(C)C)O[C@H](C(=O)N[C@@H](CC(=O)OC)C(=O)OC)[C@@H](O)[C@@H]2O)[C@H](O)[C@@H](O)[C@@H]1O)C(=O)OC [Compound 16]
- CD50 [2]: 38.0 µM

Compound: CC1(C)[C@@H](O[C@@H]2O[C@H](C(=O)O)[C@@H](O)[C@H](O)[C@H]2O[C@@H]2O[C@H](C(=O)O)[C@@H](O)[C@H](O)[C@H]2O)CC[C@]2(C)C3=CC=C4[C@@H]5C[C@@](C)(C(=O)O)CC[C@]5(C)CC[C@@]4(C)[C@]3(C)CC[C@@H]12 [Compound 19]
- anti-viral activity (in words) [1]: moderate
- more toxic to cells than natural glycoside 1 [2]: 17 times

Source: PMC7127794 (Bioorganic & Medicinal Chemistry Letters, 2015)
